Active and inactive are the calls of the source.
Experiments:
[1] = target: Luciferin 4-monooxygenase (Photinus pyralis, UniProt P08659); experiment: Counter Screen for Luciferase-based Assay Positives. [Related pubchem assays: 620, 618, 411 ]
HT-1080 = experiment: HT1080 cell viability loss – fluorescence readout (AID 620); type: functional, cell-based; settings: Homo sapiens
[2] = viability of uninfected HEp-2 cells – cell-based, HTS, cytotoxicity control for RSV inhibitor project, dose response (AID 2410); type: functional; settings: human respiratory syncytial virus
cells [3] = experiment: cells
[4] = antiviral protection against BTV-induced cell death – arbovirus, BSR cells, confirmation (AID 1250); type: functional;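 also: protection from viral cytopathic effect measured as cell viability by ATP luminescence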
[5] = target: T1, Neuropeptide Y receptor type 1 (Homo sapiens, UniProt P25929); experiment: Fluorescence-based counterscreen for agonists of NPY-Y2: cell-based high-throughput dose response assay for agonists of NPY-Y1.; type: functional
T1 sequence (P25929 whole entry): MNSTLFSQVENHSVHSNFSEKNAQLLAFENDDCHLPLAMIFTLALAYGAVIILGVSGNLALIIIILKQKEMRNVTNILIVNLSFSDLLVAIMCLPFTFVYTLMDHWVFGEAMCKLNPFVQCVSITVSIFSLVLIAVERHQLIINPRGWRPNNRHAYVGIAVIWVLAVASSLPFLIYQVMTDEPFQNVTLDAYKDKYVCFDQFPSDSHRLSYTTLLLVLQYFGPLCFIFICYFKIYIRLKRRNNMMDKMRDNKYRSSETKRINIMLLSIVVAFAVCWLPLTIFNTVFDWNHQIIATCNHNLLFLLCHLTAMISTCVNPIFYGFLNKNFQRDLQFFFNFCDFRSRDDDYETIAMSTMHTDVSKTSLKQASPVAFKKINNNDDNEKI

[6] = target: T2, Neuropeptide Y receptor type 2 (Homo sapiens, UniProt P49146); experiment: Fluorescence-based cell-based high-throughput dose response assay for agonists of NPY-Y2. [Related pubchem assays: 1703 (Screening assay (CNGC inhibitors).), 1359 (Screening assay (NPY-Y2 potentiators or agonists).), 1304 (Screening assay (NPY-Y1 potentiators or agonists).), 1710 (Screening assay (NPY-Y2 agonists).), 1791 (Summary AID.)]; type: functional
T2 sequence (P49146 whole entry): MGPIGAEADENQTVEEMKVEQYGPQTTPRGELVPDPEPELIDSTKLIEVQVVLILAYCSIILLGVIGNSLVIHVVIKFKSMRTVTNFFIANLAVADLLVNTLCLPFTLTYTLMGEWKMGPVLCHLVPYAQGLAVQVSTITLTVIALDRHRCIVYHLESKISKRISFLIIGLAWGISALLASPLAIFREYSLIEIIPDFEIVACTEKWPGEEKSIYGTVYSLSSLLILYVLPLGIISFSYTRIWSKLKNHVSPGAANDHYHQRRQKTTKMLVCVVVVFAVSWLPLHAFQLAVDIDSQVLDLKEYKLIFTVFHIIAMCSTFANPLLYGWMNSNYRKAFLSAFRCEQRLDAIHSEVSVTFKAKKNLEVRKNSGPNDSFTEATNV

HEK293 = experiment: Fluorescence-based counterscreen for potentiators or agonists of NPY-Y2: cell-based high-throughput dose response assay to identify inhibitors of cyclic nucleotide gated ion channel (CNGC) activity. In this assay, the parental HEK293 cell line transfected with a cyclic-nucleotide gated ion channel (CNGC)-based cAMP sensor is used to measure inhibition of isoproterenol-induced CNGC activity by test compound.; type: functional; settings: Homo sapiens;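 also: stimulus is 1 µM isoproterenol at EC100 plus PDE inhibitor Ro 20-1724 at 25 µM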
[7] = target: Inward rectifier potassium channel 2 (Mus musculus, UniProt P35561); experiment: Manual electrophysiological patch clamp assay for SAR compounds that inhibit/block inward-rectifying potassium ion channel Kir2.1. [Related pubchem assays: 1843 (Summary assay for Kir2.1 inhibitor assays.), 1672 (Primary HTS of 305616 compounds where 2592 were identified as active.)]; type: functional
cells [8] = type: functional
[9] = A cytotoxicity screen of small molecule inhibitors of the PhoP region in Salmonella typhi identified in the primary screen. [Related pubchem assays: 1850, 1864, 1985 ]; type: functional
Cytochrome P450 2C19 = Cytochrome P450 2C19 (Homo sapiens, UniProt P33261); experiment: Cytochrome panel assay with activity outcomes. Panel member name: p450-cyp2c19 Compounds with AC50 equal or less than 10 uM are considered active; type: functional; settings: read-out: AC50
Cytochrome P450 2C9 = Cytochrome P450 2C9 (Homo sapiens, UniProt P11712)
[10] = Luminescence-based counterscreen assay for KLF5 inhibitors: dose response cell-based high throughput screening assay to identify cytotoxic compounds using the IEC-6 intestinal epithelial cell line. [Related pubchem assays: 1700 (Primary screen.), 1834 (Confirmation screen.), 1858 (Summary AID.), 1905 (Counterscreen.)]; type: functional
[11] = luciferase reporter signal suppression in cells – H4 neuroglioma cells, luminescence, dose response (AID 1990); type: functional, cell-based
[12] = Luminescence Cell-Based Dose Response HTS to Identify Inhibitors of 5'UTR Stem-Loop Driven Prion Protein mRNA Translation in H4 Neuroglioblastoma Cells. [Related pubchem assays: 1827 (Project Summary), 1813 (Primary HTS)]; type: functional
[13] = toxicity toward HepG2 liver cells – cell-based, plate reader, cherry-pick, antagonist series, cytotoxicity control, dose response (AID 743416); type: functional
[14] = target: T3, Heat shock factor protein 1 (Mus musculus, UniProt P38532); experiment: decrease of HSF1-responsive luciferase luminescence – cell-based, NIH3T3, dose retest, confirmation (AID 2382); type: functional;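 also: NIH3T3 fibroblasts with HSF1-driven luciferase reporter stressed by proteasome inhibitor MG132; luminescence from HSF1-driven luciferase expression after 8 hours of MG132 stress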
T3 sequence (P38532 whole entry): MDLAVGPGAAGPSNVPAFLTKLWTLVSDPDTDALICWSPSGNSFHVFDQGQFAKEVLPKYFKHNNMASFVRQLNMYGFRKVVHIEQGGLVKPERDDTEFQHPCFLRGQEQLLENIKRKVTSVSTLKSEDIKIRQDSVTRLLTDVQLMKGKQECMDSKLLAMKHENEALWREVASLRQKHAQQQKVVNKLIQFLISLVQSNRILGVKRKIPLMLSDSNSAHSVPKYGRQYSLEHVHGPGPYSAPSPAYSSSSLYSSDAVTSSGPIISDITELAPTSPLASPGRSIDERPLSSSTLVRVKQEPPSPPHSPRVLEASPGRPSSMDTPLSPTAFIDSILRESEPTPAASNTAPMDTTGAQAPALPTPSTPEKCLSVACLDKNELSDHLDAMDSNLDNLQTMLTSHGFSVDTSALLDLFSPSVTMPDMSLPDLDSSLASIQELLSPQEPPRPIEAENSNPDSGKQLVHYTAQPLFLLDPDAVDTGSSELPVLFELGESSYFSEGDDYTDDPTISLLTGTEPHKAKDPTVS

[15] = alpha-synuclein stem-loop translation blockers – luminescence, H4 neuroglioblastoma cells, dose confirmation, confirmation (AID 2454); type: functional, cell-based;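 also: H4 neuroglioblastoma cells carrying an alpha-synuclein 5'UTR luciferase reporter; potency for inhibition of the luciferase signal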
[16] = luciferase reporter signal reduction – luminescence, H4-C neuroglioblastoma cells, dose response (AID 2458); type: functional, cell-based;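 also: H4 neuroglioblastoma cells stably carrying a luciferase reporter gene fusion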
[17] = blockers of bursicon-stimulated LGR2 cAMP reporter – cell-based, HEK293, CRE-luciferase reporter, cherry pick, set 2, dose response (AID 743343); type: functional;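 also: transfected cells were stimulated with diluted bursicon conditioned medium after compound addition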
[18] = alpha-synuclein stem-loop luciferase translation blockers – H4 neuroglioma cells, luminescence, confirmation (AID 1988); type: functional, cell-based
cells [19] = type: functional, cell-based
[20] = blockade of melanocortin 4 receptor signaling – cell-based, plate reader, cherry pick, counter-screen for LGR2 antagonist project, dose response (AID 743444); type: functional;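 also: transfected HEK 293 cells stimulated with alpha-MSH peptide; potency of inhibitors of the alpha-MSH evoked signal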
[21] = viability loss in HEK293 cells – cell-based, plate reader, cherry-picked samples, cytotoxicity control, dose response (AID 743446); type: functional

Sequence of Cytochrome P450 2C9 (P11712 whole entry): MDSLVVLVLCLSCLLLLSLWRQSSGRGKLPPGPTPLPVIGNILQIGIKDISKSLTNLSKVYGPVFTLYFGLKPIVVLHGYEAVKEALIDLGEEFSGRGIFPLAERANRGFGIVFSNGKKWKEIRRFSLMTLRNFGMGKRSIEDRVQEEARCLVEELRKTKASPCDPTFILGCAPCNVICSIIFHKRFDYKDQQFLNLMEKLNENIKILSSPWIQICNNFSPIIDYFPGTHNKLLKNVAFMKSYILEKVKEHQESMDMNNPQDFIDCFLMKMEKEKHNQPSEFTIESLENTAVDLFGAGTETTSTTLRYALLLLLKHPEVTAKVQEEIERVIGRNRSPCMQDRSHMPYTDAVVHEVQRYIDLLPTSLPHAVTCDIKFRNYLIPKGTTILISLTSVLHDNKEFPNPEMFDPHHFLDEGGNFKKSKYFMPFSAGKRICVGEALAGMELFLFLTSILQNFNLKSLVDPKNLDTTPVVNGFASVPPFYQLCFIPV
Sequence of Luciferin 4-monooxygenase (P08659 whole entry): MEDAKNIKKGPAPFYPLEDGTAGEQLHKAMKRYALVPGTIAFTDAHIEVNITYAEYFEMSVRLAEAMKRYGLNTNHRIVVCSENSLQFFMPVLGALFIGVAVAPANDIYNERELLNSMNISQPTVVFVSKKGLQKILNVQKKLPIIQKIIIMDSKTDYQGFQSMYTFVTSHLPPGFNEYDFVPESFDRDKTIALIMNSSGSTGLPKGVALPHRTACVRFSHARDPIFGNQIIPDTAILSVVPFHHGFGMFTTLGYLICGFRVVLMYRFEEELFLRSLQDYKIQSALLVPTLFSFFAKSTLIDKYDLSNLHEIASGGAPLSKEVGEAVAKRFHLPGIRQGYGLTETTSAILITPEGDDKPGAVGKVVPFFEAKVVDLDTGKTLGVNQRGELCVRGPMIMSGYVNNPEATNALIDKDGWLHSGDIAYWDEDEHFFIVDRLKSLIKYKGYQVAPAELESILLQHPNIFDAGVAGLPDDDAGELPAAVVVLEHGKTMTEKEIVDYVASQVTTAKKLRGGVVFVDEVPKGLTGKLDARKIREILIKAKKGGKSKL
Sequence of Inward rectifier potassium channel 2 (P35561 whole entry): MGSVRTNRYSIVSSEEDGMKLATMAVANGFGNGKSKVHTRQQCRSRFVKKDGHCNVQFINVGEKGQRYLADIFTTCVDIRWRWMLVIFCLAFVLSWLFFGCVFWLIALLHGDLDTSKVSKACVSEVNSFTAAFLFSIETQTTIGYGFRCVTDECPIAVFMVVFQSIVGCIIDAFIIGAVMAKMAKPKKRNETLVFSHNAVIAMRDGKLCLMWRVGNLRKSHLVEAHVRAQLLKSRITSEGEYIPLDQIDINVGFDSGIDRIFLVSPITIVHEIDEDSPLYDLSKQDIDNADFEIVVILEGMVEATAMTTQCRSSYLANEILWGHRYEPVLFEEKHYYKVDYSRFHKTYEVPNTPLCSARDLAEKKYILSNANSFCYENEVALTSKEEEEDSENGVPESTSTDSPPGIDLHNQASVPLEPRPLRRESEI
Sequence of Cytochrome P450 2C19 (P33261 whole entry): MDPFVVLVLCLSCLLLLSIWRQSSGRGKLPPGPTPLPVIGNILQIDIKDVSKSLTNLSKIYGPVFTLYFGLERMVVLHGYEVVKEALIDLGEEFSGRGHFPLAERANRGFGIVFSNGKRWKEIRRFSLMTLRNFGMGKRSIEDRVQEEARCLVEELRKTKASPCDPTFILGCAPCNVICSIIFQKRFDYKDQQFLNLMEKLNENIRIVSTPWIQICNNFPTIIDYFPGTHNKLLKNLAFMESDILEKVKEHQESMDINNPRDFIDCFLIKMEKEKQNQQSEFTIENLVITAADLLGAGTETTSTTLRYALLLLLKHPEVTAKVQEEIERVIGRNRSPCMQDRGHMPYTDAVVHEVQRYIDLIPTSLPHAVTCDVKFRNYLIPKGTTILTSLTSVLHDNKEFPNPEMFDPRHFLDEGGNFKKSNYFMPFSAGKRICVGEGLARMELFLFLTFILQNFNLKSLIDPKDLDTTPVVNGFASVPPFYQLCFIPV

COc1cc(SC)ccc1C(=O)Nc1ccc2c(c1)OCCO2
EC50 [1]: 75.4 µM (active) | EC50 (HT-1080): > 50 µM (not active) | CC50 [2]: 19.9 µM (active)

O=C(CCn1c(=O)c2sccc2n(Cc2cc(=O)n3ccccc3n2)c1=O)NCc1ccco1
IC50 (cells [3]): 24.4 µM (active)

O=C(Nc1nc(-c2ccco2)cs1)c1ccccc1
IC50 [4]: 30.7 µM (active)

OC1(c2ccc(OC(F)F)cc2)CS/C(=N\c2cccnc2)N1Cc1ccco1 (stereo not given)
EC50 [5]: > 35.4 µM (not active) | EC50 [6]: > 35.4 µM (not active) | EC50 (HEK293): > 35.4 µM (not active)

COc1ccc(CNCc2ccc(Cl)cc2Cl)cc1
IC50 [7]: 3.13 µM (active)

CC(=O)/C=C1\Nc2ccccc2OC1=O
IC50 (cells [8]): 5.75 µM (active) | EC50 [9]: > 50 µM (active) | AC50 (Cytochrome P450 2C19): 7.94 µM (inconclusive) | AC50 (Cytochrome P450 2C9): 2.24 µM (inconclusive)

CCc1ccn2cc(-c3cc(-c4ccccc4)no3)nc2c1
IC50 [10]: > 39.8 µM (not active) | EC50 [11]: 0.207 µM (active) | EC50 [12]: < 0.1 µM (active) | AC50 [13]: 25.4 µM (active) | EC50 [14]: < 0.16 µM (active) | EC50 [15]: 1.12 µM (active) | EC50 [16]: 1.2 µM (active) | AC50 [17]: 0.805 µM (active) | EC50 [18]: 0.13 µM (active) | EC50 (cells [19]): > 12 µM (inconclusive) | AC50 [20]: 0.701 µM (active) | AC50 [21]: > 52 µM (inactive)

Source: ChEMBL document CHEMBL1201862, “PubChem BioAssay data set” (2004)
